Data on eleven compounds can be found in US7868026B2, “Therapeutic compounds” (Pfizer Inc., priority 2005, dated 2011).

One may read the IC50 as the concentration at which inhibition is half-maximal.

T1 sequence (P08684 whole entry): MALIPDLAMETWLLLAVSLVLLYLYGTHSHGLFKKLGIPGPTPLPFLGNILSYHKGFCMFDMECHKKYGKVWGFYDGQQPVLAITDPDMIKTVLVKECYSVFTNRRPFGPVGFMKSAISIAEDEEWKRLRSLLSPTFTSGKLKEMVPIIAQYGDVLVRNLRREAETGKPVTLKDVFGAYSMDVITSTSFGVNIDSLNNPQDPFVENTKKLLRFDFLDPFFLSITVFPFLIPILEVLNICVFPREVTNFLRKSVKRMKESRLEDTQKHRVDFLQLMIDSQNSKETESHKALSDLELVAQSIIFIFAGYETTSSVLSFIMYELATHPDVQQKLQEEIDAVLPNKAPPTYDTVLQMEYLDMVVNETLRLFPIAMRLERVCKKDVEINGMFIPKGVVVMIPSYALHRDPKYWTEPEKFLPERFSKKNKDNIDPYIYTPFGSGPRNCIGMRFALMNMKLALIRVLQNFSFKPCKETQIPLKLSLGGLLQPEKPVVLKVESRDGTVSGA

In one test the target is T1, CYP3A4 (Homo sapiens, UniProt P08684). Kind of test: Determination of compound Kiapp against recombinant CYP3A4 enzyme (BFC fluorescent substrate). The format is biochemical. The conditions noted are these: Baculo. enzyme preparation, read-out: Kiapp (BFC, Baculo.). Put shortly:
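Kiapp derived from initial velocities over the first 5 min of BFC (5 uM) oxidation, using Morrison's tight-binding equation for non-partial and Szedlacsek's for partial inhibitors. Inhibitor first pre-incubated ≥30 min with CYP3A4 (5.5 or 8 nM, ±b5) in pH 7.0 phosphate/TCEP/2% DMF at room temperature; 200 uM NADPH initiated.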
Take `Cc1cncc(NS(=O)(=O)c2ccccc2C(=O)N(C)CC2CCCC2)c1` [Example 347, N-(cyclopentylmethyl)-N-methyl-2-{[(5-methylpyridin-3-yl)amino]sulfonyl}benzamide]: the Ki is 34.7 nM.
On to `Cc1cncc(NS(=O)(=O)c2ccccc2C(=O)N(C)CCC(C)C)c1` [Example 348, N-methyl-N-(3-methylbutyl)-2-{[(5-methylpyridin-3-yl)amino]sulfonyl}benzamide], for which the Ki was 30.8 nM.
As for `Cc1cncc(NS(=O)(=O)c2ccccc2C(=O)N(C)Cc2cccc(F)c2)c1` [Example 349, N-(3-fluorobenzyl)-N-methyl-2-{[(5-methylpyridin-3-yl)amino]sulfonyl}benzamide], the Ki is 56.4 nM.
With `CN(Cc1cccc(F)c1)C(=O)c1ccccc1S(=O)(=O)Nc1cccnc1` [Example 350, N-(3-fluorobenzyl)-N-methyl-2-[(pyridin-3-ylamino)sulfonyl]benzamide], the Ki is 139 nM.
For `CCCCNC(=O)c1ccccc1S(=O)(=O)N(C)c1cccnc1` [Example 351, N-butyl-2-{[methyl(pyridin-3-yl)amino]sulfonyl}benzamide], the Ki turned out to be 456 nM.
Turning to `CCCCN(C)C(=O)c1ccccc1S(=O)(=O)Nc1cncc(C)c1` [Example 352, N-butyl-N-methyl-2-{[(5-methylpyridin-3-yl)amino]sulfonyl}benzamide], the Ki stood at 70.4 nM.
Still for that read-out and setting: the result for `CCCCN(C)C(=O)c1ccccc1S(=O)(=O)Nc1cncc(OC)c1` [Example 353, N-butyl-2-{[(5-methoxypyridin-3-yl)amino]sulfonyl}-N-methylbenzamide] reads 28.1 nM; that for `Cc1cncc(NS(=O)(=O)c2ccccc2C(=O)NC(C)(C)C)c1` [Example 354, N-(tert-butyl)-2-{[(5-methyl-pyridin-3-yl)amino]sulfonyl} benzamide], 305 nM; that for `CN(Cc1ccccc1)C(=O)c1ccccc1S(=O)(=O)N(C)c1cccnc1` [Example 355, N-benzyl-N-methyl-2-{[methyl(pyridin-3-yl)amino]sulfonyl}benzamide], 181 nM.
Still for that read-out and setting: the result for `CC1CCN(C(=O)c2ccccc2S(=O)(=O)N(C)c2cccnc2)CC1` [Example 356, N-methyl-2-[(4-methylpiperidin-1-yl)carbonyl]-N-pyridin-3-ylbenzenesulfonamide] reads 483 nM; that for `CN(c1cccnc1)S(=O)(=O)c1ccccc1C(=O)NCc1cccc(F)c1` [Example 357, N-(3-fluorobenzyl)-2-{[methyl(pyridin-3-yl)amino]sulfonyl}benzamide], 123 nM.

Staying with this test, now noted: Super. enzyme preparation, read-out: Kiapp (BFC, Super.).
As for `Cc1cncc(NS(=O)(=O)c2ccccc2C(=O)N(C)CC2CCCC2)c1` [Example 347, N-(cyclopentylmethyl)-N-methyl-2-{[(5-methylpyridin-3-yl)amino]sulfonyl}benzamide], the Ki was 5.4 nM.
`Cc1cncc(NS(=O)(=O)c2ccccc2C(=O)N(C)CCC(C)C)c1` [Example 348, N-methyl-N-(3-methylbutyl)-2-{[(5-methylpyridin-3-yl)amino]sulfonyl}benzamide]: the Ki is 4.7 nM.
In the case of `Cc1cncc(NS(=O)(=O)c2ccccc2C(=O)N(C)Cc2cccc(F)c2)c1` [Example 349, N-(3-fluorobenzyl)-N-methyl-2-{[(5-methylpyridin-3-yl)amino]sulfonyl}benzamide], the Ki came to 7.4 nM.
Same read-out and setting: the result for `CN(Cc1cccc(F)c1)C(=O)c1ccccc1S(=O)(=O)Nc1cccnc1` [Example 350, N-(3-fluorobenzyl)-N-methyl-2-[(pyridin-3-ylamino)sulfonyl]benzamide] reads 21.4 nM; that for `CCCCNC(=O)c1ccccc1S(=O)(=O)N(C)c1cccnc1` [Example 351, N-butyl-2-{[methyl(pyridin-3-yl)amino]sulfonyl}benzamide], 138 nM.
Still for that read-out and setting: for `CCCCN(C)C(=O)c1ccccc1S(=O)(=O)Nc1cncc(C)c1` [Example 352, N-butyl-N-methyl-2-{[(5-methylpyridin-3-yl)amino]sulfonyl}benzamide] the value was 22.6 nM; for `CCCCN(C)C(=O)c1ccccc1S(=O)(=O)Nc1cncc(OC)c1` [Example 353, N-butyl-2-{[(5-methoxypyridin-3-yl)amino]sulfonyl}-N-methylbenzamide], 11.5 nM; for `Cc1cncc(NS(=O)(=O)c2ccccc2C(=O)NC(C)(C)C)c1` [Example 354, N-(tert-butyl)-2-{[(5-methyl-pyridin-3-yl)amino]sulfonyl} benzamide], 25.3 nM.
Same read-out and setting: for `CN(Cc1ccccc1)C(=O)c1ccccc1S(=O)(=O)N(C)c1cccnc1` [Example 355, N-benzyl-N-methyl-2-{[methyl(pyridin-3-yl)amino]sulfonyl}benzamide] the value was 44.9 nM; for `CC1CCN(C(=O)c2ccccc2S(=O)(=O)N(C)c2cccnc2)CC1` [Example 356, N-methyl-2-[(4-methylpiperidin-1-yl)carbonyl]-N-pyridin-3-ylbenzenesulfonamide], 148 nM; for `CN(c1cccnc1)S(=O)(=O)c1ccccc1C(=O)NCc1cccc(F)c1` [Example 357, N-(3-fluorobenzyl)-2-{[methyl(pyridin-3-yl)amino]sulfonyl}benzamide], 30.4 nM.

Another test has as its target T1, CYP3A4. Kind of test: Determination of IC50 against CYP3A4 by measurement of inhibition of midazolam metabolism (human liver microsomes, 1-hydroxymidazolam by LC-MS/MS). The arrangement: 0.1 mg/mL human liver microsomes. Format: biochemical. The conditions noted are these: 2 μM midazolam, 0.1 mg/mL human liver microsomes. The gist of the method: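 Human liver microsomes (0.1 mg/mL) incubated 8 min with 2 μM midazolam and 1 mM NADPH in 100 mM potassium phosphate, pH 7.4. 1-Hydroxymidazolam quantified by LC-MS/MS (MRM) as peak area ratio to internal standard against a metabolite standard curve.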
`Cc1cncc(NS(=O)(=O)c2ccccc2C(=O)N(C)CC2CCCC2)c1` [Example 347, N-(cyclopentylmethyl)-N-methyl-2-{[(5-methylpyridin-3-yl)amino]sulfonyl}benzamide]: the IC50 worked out at 13 nM.
The same measure, in the same setting: for `Cc1cncc(NS(=O)(=O)c2ccccc2C(=O)N(C)CCC(C)C)c1` [Example 348, N-methyl-N-(3-methylbutyl)-2-{[(5-methylpyridin-3-yl)amino]sulfonyl}benzamide] the value was 7 nM; for `Cc1cncc(NS(=O)(=O)c2ccccc2C(=O)N(C)Cc2cccc(F)c2)c1` [Example 349, N-(3-fluorobenzyl)-N-methyl-2-{[(5-methylpyridin-3-yl)amino]sulfonyl}benzamide], 11 nM; for `CN(Cc1cccc(F)c1)C(=O)c1ccccc1S(=O)(=O)Nc1cccnc1` [Example 350, N-(3-fluorobenzyl)-N-methyl-2-[(pyridin-3-ylamino)sulfonyl]benzamide], 20 nM.
As to `CCCCNC(=O)c1ccccc1S(=O)(=O)N(C)c1cccnc1` [Example 351, N-butyl-2-{[methyl(pyridin-3-yl)amino]sulfonyl}benzamide], the IC50 is 113 nM.
On to `CCCCN(C)C(=O)c1ccccc1S(=O)(=O)Nc1cncc(C)c1` [Example 352, N-butyl-N-methyl-2-{[(5-methylpyridin-3-yl)amino]sulfonyl}benzamide], for which the IC50 was 16 nM.
Still for that read-out and setting: for `CCCCN(C)C(=O)c1ccccc1S(=O)(=O)Nc1cncc(OC)c1` [Example 353, N-butyl-2-{[(5-methoxypyridin-3-yl)amino]sulfonyl}-N-methylbenzamide] the value was 18 nM; for `Cc1cncc(NS(=O)(=O)c2ccccc2C(=O)NC(C)(C)C)c1` [Example 354, N-(tert-butyl)-2-{[(5-methyl-pyridin-3-yl)amino]sulfonyl} benzamide], 31 nM.
Still for that read-out and setting: the result for `CN(Cc1ccccc1)C(=O)c1ccccc1S(=O)(=O)N(C)c1cccnc1` [Example 355, N-benzyl-N-methyl-2-{[methyl(pyridin-3-yl)amino]sulfonyl}benzamide] reads 63 nM; that for `CC1CCN(C(=O)c2ccccc2S(=O)(=O)N(C)c2cccnc2)CC1` [Example 356, N-methyl-2-[(4-methylpiperidin-1-yl)carbonyl]-N-pyridin-3-ylbenzenesulfonamide], 83 nM; that for `CN(c1cccnc1)S(=O)(=O)c1ccccc1C(=O)NCc1cccc(F)c1` [Example 357, N-(3-fluorobenzyl)-2-{[methyl(pyridin-3-yl)amino]sulfonyl}benzamide], 32 nM.

A further test has as its target T1, CYP3A4. In words: Determination of IC50 against CYP3A4 by measurement of inhibition of testosterone metabolism (human liver microsomes, 6-β-OH-testosterone by LC-MS/MS). Format: biochemical. The arrangement: 0.1 mg/mL human liver microsomes. The note with it: read-out: IC50 (Testo.). The gist of the method:
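6-β-OH-testosterone formation was read by LC-MS/MS (MRM, internal standard, standard curve) after eight minutes. Reaction contained testosterone 25 μM, NADPH 1 mM and microsomal protein 0.1 mg/mL in pH 7.4 potassium phosphate (100 mM).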
Background: Microsomes from liver hold many membrane-bound enzymes, among them those of drug oxidation.
In the case of `Cc1cncc(NS(=O)(=O)c2ccccc2C(=O)N(C)CC2CCCC2)c1` [Example 347, N-(cyclopentylmethyl)-N-methyl-2-{[(5-methylpyridin-3-yl)amino]sulfonyl}benzamide], the 50% inhibitory concentration (IC50) is 26 nM.
Same read-out and setting: the result for `Cc1cncc(NS(=O)(=O)c2ccccc2C(=O)N(C)CCC(C)C)c1` [Example 348, N-methyl-N-(3-methylbutyl)-2-{[(5-methylpyridin-3-yl)amino]sulfonyl}benzamide] reads 12 nM; that for `Cc1cncc(NS(=O)(=O)c2ccccc2C(=O)N(C)Cc2cccc(F)c2)c1` [Example 349, N-(3-fluorobenzyl)-N-methyl-2-{[(5-methylpyridin-3-yl)amino]sulfonyl}benzamide], 25 nM.
On the same count and under the same terms, the result for `CN(Cc1cccc(F)c1)C(=O)c1ccccc1S(=O)(=O)Nc1cccnc1` [Example 350, N-(3-fluorobenzyl)-N-methyl-2-[(pyridin-3-ylamino)sulfonyl]benzamide] reads 39 nM; that for `CCCCNC(=O)c1ccccc1S(=O)(=O)N(C)c1cccnc1` [Example 351, N-butyl-2-{[methyl(pyridin-3-yl)amino]sulfonyl}benzamide], 110 nM.
On the same count and under the same terms, the result for `CCCCN(C)C(=O)c1ccccc1S(=O)(=O)Nc1cncc(C)c1` [Example 352, N-butyl-N-methyl-2-{[(5-methylpyridin-3-yl)amino]sulfonyl}benzamide] reads 31 nM; that for `CCCCN(C)C(=O)c1ccccc1S(=O)(=O)Nc1cncc(OC)c1` [Example 353, N-butyl-2-{[(5-methoxypyridin-3-yl)amino]sulfonyl}-N-methylbenzamide], 31 nM.
As to `Cc1cncc(NS(=O)(=O)c2ccccc2C(=O)NC(C)(C)C)c1` [Example 354, N-(tert-butyl)-2-{[(5-methyl-pyridin-3-yl)amino]sulfonyl} benzamide], the IC50 worked out at 61 nM.
Same read-out and setting: for `CN(Cc1ccccc1)C(=O)c1ccccc1S(=O)(=O)N(C)c1cccnc1` [Example 355, N-benzyl-N-methyl-2-{[methyl(pyridin-3-yl)amino]sulfonyl}benzamide] the value was 64 nM; for `CC1CCN(C(=O)c2ccccc2S(=O)(=O)N(C)c2cccnc2)CC1` [Example 356, N-methyl-2-[(4-methylpiperidin-1-yl)carbonyl]-N-pyridin-3-ylbenzenesulfonamide], 114 nM.
The same measure, in the same setting: for `CN(c1cccnc1)S(=O)(=O)c1ccccc1C(=O)NCc1cccc(F)c1` [Example 357, N-(3-fluorobenzyl)-2-{[methyl(pyridin-3-yl)amino]sulfonyl}benzamide] the value was 43 nM.
